# Experimental data as given in PMC8245078, “Development of novel benzofuran-isatin conjugates as potential antiproliferative agents with apoptosis inducing mechanism in Colon cancer” (Journal of Enzyme Inhibition and Medicinal Chemistry, 2021).
# Legend:
# COLO 205 = assay type: cell-based; conditions: COLO 205, five-dose test
# SF-295 = assay type: cell-based, human; conditions: SF-295, five-dose test
# K-562 = assay type: cell-based; conditions: K-562, five-dose test
# [1] = tested on: non-small cell lung cancer subpanel; assay type: cell-based, human
# SN12C = assay type: cell-based; conditions: five-dose test
# PC-3 = assay type: cell-based; conditions: PC-3, five-dose test
# HOP-92 = assay type: cell-based, human; conditions: HOP-92, five-dose test
# OVCAR-3 = assay type: cell-based; conditions: Homo sapiens; OVCAR-3, five-dose test
# OVCAR-5 = assay type: cell-based; conditions: Homo sapiens; OVCAR-5, five-dose test; read-out: LC50 (the source's name)
# HOP-62 = assay type: cell-based; conditions: HOP-62, five-dose test
# HT29 = assay type: cell-based; conditions: Homo sapiens, HT-29; HT29, five-dose test; read-out: LC50 (the source's name)
# HL60(TB) = assay type: cell-based
# SK-OV-3 = assay type: cell-based, human; conditions: SK-OV-3, five-dose test
# KM12 = assay type: cell-based; conditions: KM12, five-dose test
# SF-268 = assay type: cell-based; conditions: SF-268, five-dose test
# CCRF-CEM = assay type: cell-based; conditions: five-dose test
# CNS Cancer subpanel = assay type: cell-based, human
# BT-549 = assay type: cell-based; conditions: BT-549, five-dose test
# Colon Cancer subpanel = assay type: cell-based, human
# SNB-19 = assay type: cell-based; conditions: SNB-19, five-dose test
# DU-145 = assay type: cell-based; conditions: Homo sapiens; DU-145, five-dose test
# UACC-257 = assay type: cell-based; conditions: UACC-257, five-dose test
# MCF7 = assay type: cell-based; conditions: MCF7, five-dose test
# U251 = assay type: cell-based, human; conditions: U251, five-dose test
# UACC-62 = assay type: cell-based; conditions: UACC-62, five-dose test
# SR = assay type: cell-based; conditions: five-dose test
# SF-539 = assay type: cell-based, human; conditions: SF-539, five-dose test
# Breast Cancer subpanel = assay type: cell-based, human
# Renal Cancer subpanel = assay type: cell-based, human
# NCI-H23 = assay type: cell-based; conditions: NCI-H23, five-dose test
# MDA-MB-435 = assay type: cell-based; conditions: MDA-MB-435, five-dose test
# T-47D = assay type: cell-based; conditions: Homo sapiens, T47D, five-dose test
# MALME-3M = assay type: cell-based, human; conditions: five-dose test
# [2] = Homo sapiens, read-out: LC50 (the source's name)
smiles,measurement,setting,value
COc1ccc2c(c1)/C(=N/NC(=O)c1oc3ccccc3c1C)C(=O)N2 [Compound 5d],TGI,COLO 205,>100 µM
same,LC50 (concentration killing 50% of cells),COLO 205; Homo sapiens,> 100 µM
same,GI50,SF-295; Homo sapiens,2.03 µM
same,TGI,SF-295,4.13 µM
same,CC50,"K-562; Homo sapiens, K562, read-out: LC50 (the source's name)",> 100 µM
same,TGI,K-562,>100 µM
same,GI50,"[1]; Homo sapiens, non-small cell lung cancer subpanel, read-out: MG-MID (GI50 average of the subpanel)",2.8 µM
same,Selectivity index,"[1]; full panel MID / subpanel MID, non-small cell lung cancer",0.89
same,GI50,SN12C; Homo sapiens,2.82 µM
same,CC50,SN12C; [2],> 100 µM
same,TGI,SN12C,>100 µM
same,CC50,PC-3; [2],> 100 µM
same,TGI,PC-3,>100 µM
same,TGI,HOP-92,3.98 µM
same,GI50,HOP-92; Homo sapiens,1.84 µM
same,GI50,OVCAR-3,1.84 µM
same,CC50,OVCAR-5,> 100 µM
same,TGI,HOP-62,4.02 µM
same,GI50,HOP-62; Homo sapiens,1.92 µM
same,CC50,HOP-62; [2],8.44 µM
same,CC50,HT29,> 100 µM
same,GI50,"HL60(TB); Homo sapiens, HL-60, five-dose test",> 100 µM
same,CC50,"HL60(TB); Homo sapiens, HL-60, five-dose test, read-out: LC50 (the source's name)",> 100 µM
same,TGI,HL60(TB); five-dose test,>100 µM
same,GI50,SK-OV-3; Homo sapiens,1.82 µM
same,TGI,SK-OV-3,3.83 µM
same,CC50,KM12; [2],> 100 µM
same,TGI,KM12,>100 µM
same,GI50,SF-268; Homo sapiens,5.18 µM
same,CC50,SF-268; [2],> 100 µM
same,TGI,SF-268,56.8 µM
same,CC50,CCRF-CEM; [2],> 100 µM
same,TGI,CCRF-CEM,>100 µM
same,GI50,"CNS Cancer subpanel; Homo sapiens, CNS Cancer subpanel, read-out: MG-MID (GI50 average of the subpanel)",2.6 µM
same,Selectivity index,"CNS Cancer subpanel; full panel MID / subpanel MID, CNS Cancer",0.96
same,TGI,BT-549,33.7 µM
same,GI50,BT-549; Homo sapiens,5.38 µM
same,LC50 (concentration causing 50% net cell kill),BT-549; Homo sapiens,> 100 µM
same,GI50,"Colon Cancer subpanel; Homo sapiens, Colon Cancer subpanel, read-out: MG-MID (GI50 average of the subpanel)",1.92 µM
same,Selectivity index,"Colon Cancer subpanel; full panel MID / subpanel MID, Colon Cancer",1.30
same,GI50,SNB-19; Homo sapiens,3.45 µM
same,CC50,SNB-19; [2],> 100 µM
same,TGI,SNB-19,16.2 µM
same,LC50,DU-145,> 100 µM
same,LC50 (concentration killing 50% of cells),UACC-257; Homo sapiens,> 100 µM
same,TGI,UACC-257,>100 µM
same,CC50,MCF7; [2],> 100 µM
same,TGI,MCF7,>100 µM
same,GI50,"U251; Homo sapiens, U-251",2.03 µM
same,TGI,U251,4.26 µM
same,GI50,UACC-62; Homo sapiens,5.19 µM
same,CC50,UACC-62; [2],> 100 µM
same,TGI,UACC-62,>100 µM
same,CC50,SR; [2],> 100 µM
same,TGI,SR,>100 µM
same,GI50,SF-539; Homo sapiens,1.66 µM
same,TGI,SF-539,3.16 µM
same,GI50,"Breast Cancer subpanel; Homo sapiens, Breast Cancer subpanel, read-out: MG-MID (GI50 average of the subpanel)",2.83 µM
same,Selectivity index,"Breast Cancer subpanel; full panel MID / subpanel MID, Breast Cancer",0.88
same,GI50,"Renal Cancer subpanel; Homo sapiens, Renal Cancer subpanel, read-out: MG-MID (GI50 average of the subpanel)",1.98 µM
same,Selectivity index,"Renal Cancer subpanel; full panel MID / subpanel MID, Renal Cancer",1.26
same,GI50,NCI-H23; Homo sapiens,1.86 µM
same,LC50,NCI-H23; Homo sapiens,> 100 µM
same,TGI,NCI-H23,4.43 µM
same,CC50,MDA-MB-435; [2],> 100 µM
same,TGI,MDA-MB-435,>100 µM
same,GI50,T-47D,1.7 µM
same,LC50,T-47D,> 100 µM
same,GI50,MALME-3M; Homo sapiens,1.81 µM
same,TGI,MALME-3M,3.79 µM
